The test system of data set [1] is Escherichia coli. It is filed as cell-based.
In data set [2] the test system is Salmonella Typhimurium. It is filed as cell-based.
Data set [3] has as its system Clostridium perfringens. It is filed as cell-based. To be noted: strain of avian origin.
Data set [4] concerns Clostridium perfringens. Type of data set: cell-based. To be noted: strain of avian origin, 10^6 cfu/ml, 37° C. for 24 hours, anaerobiosis.
Data set [5] relates to Salmonella Typhimurium. It is filed as cell-based. This is another data set of the same source.
Data set [6] has as its system Escherichia coli. It is filed as cell-based. This is another data set of the same source.
A further data set in a line: Solubility in water. It is filed as physicochemical. To be noted: for solubility: water, at 25° C.
The test system of data set [7] is Salmonella Enteritidis. It is filed as cell-based.
The subject of data set [8] is Salmonella Enteritidis. It is filed as cell-based. The source holds these as a separate data set.

For `CCCCCCCCCCCC(=O)Oc1cc(C)ccc1C(C)C` [IB570, Thymol Laurate], the MBC in the data set with Escherichia coli [1], against Clostridium perfringens [3] and against Salmonella Typhimurium [5] was >10% each time. Moreover, the MIC against Salmonella Typhimurium [2], against Clostridium perfringens [4] and with Escherichia coli [6] was >10% each time.

As to `CCCCCCCCCCCC(=O)OC1CC(C)CCC1C(C)C` (stereo not shown) [IB579, Menthol Laurate], the MBC against Escherichia coli [1], in the data set with Clostridium perfringens [3] and against Salmonella Typhimurium [5] was >10% in each case. The MIC in the data set with Salmonella Typhimurium [2], against Clostridium perfringens [4] and against Escherichia coli [6] was >10% in each case.

Regarding `CCCCCCCCCCCC(=O)Oc1cc(C(C)C)ccc1C` [IB536, Carvacrol Laurate], the MBC against Escherichia coli [1], in the data set with Clostridium perfringens [3] and with Salmonella Typhimurium [5] was >10% in each case. Besides, the MIC against Salmonella Typhimurium [2], in the data set with Clostridium perfringens [4] and against Escherichia coli [6] was >10% throughout.

Take `Cc1cc(O)c(C(C)C)cc1S(=O)(=O)[O-].[K+]` [IB575, Thymol Sulfonate Potassium Salt]: the results for the MBC with Escherichia coli [1], with Clostridium perfringens [3] and with Salmonella Typhimurium [5] were 2.5%, 2.5% and 5%, respectively. The values for the MIC against Salmonella Typhimurium [2], in the data set on Clostridium perfringens [4] and against Escherichia coli [6] were 5%, 1.25% and 2.5%, respectively. In “Solubility in water”, the solubility was ~190 mg/mL.

Turning to `Cc1ccc(C(C)C)cc1O` [Carvacrol, reference compound], the figures for the MBC in the data set with Escherichia coli [1], in the data set on Clostridium perfringens [3] and in the data set with Salmonella Typhimurium [5] were ≤0.093%, ≤0.093% and 0.375%, respectively. Further, the MIC was 0.375% in the data set on Salmonella Typhimurium [2], ≤0.093% against Clostridium perfringens [4] and ≤0.093% with Escherichia coli [6]. For the same compound, the Solubility in water result in the data set “Solubility in water” (result in words) was “INSOLUBLE”.

For `Cc1ccc(C(C)C)c(OC(=O)CCC(=O)Oc2cc(C)ccc2C(C)C)c1` [Succinate], the MBC with Escherichia coli [1], against Clostridium perfringens [3] and with Salmonella Typhimurium [5] was ≤0.093% each time. In addition, the MIC in the data set on Salmonella Typhimurium [2], against Clostridium perfringens [4] and with Escherichia coli [6] was ≤0.093% throughout.

With `Cc1ccc(C(C)C)c(O)c1` [Thymol, reference compound], the MBC against Escherichia coli [1], against Clostridium perfringens [3] and against Salmonella Typhimurium [5] was ≤0.093% each time. For the same compound, the MIC in the data set with Salmonella Typhimurium [2], against Clostridium perfringens [4] and against Escherichia coli [6] was ≤0.093% in each case.

On to `Cc1cc(O)c(C(C)C)cc1S(=O)(=O)O` [IB574, Thymol Sulfonic Acid], for which the MBC was 0.625% against Salmonella Enteritidis [7], 0.75% with Escherichia coli [1], 0.375% with Clostridium perfringens [3] and 0.375% in the data set with Salmonella Typhimurium [5]. Moreover, the MIC is 0.375% in the data set with Salmonella Typhimurium [2], 0.625% in the data set on Salmonella Enteritidis [8], 0.375% against Clostridium perfringens [4] and 0.75% against Escherichia coli [6].

Consider `Cc1cc(S(=O)(=O)[O-])c(C(C)C)cc1O.[K+]` [IB546, Carvacrol Sulfonate Potassium Salt], for which the melting point is > 270 °C (dec.). Moreover, the MBC against Salmonella Enteritidis [7] is listed as 1.25%. Besides, the MBC against Escherichia coli [1] turned out to be 5%. The compound further yielded an MIC against Salmonella Typhimurium [2] of 1.25%. The compound also yielded an MIC in the data set with Salmonella Enteritidis [8] of 1.25%. The same compound came in with an MBC against Clostridium perfringens [3] of 0.75%. In the data set with Clostridium perfringens [4], this compound came in with an MIC of 0.375%. Further, the solubility in “Solubility in water” is ~250 mg/mL. This compound also had an MBC in the data set with Salmonella Typhimurium [5] of 1.25%. In the data set with Escherichia coli [6], the MIC was determined as 5%.

On to `Cc1cc(S(=O)(=O)O)c(C(C)C)cc1O` [IB540, Carvacrol Sulfonic Acid], for which the MBC against Salmonella Enteritidis [7] was found to be 0.312%; against Escherichia coli [1] it was 0.75%; with Clostridium perfringens [3], 0.75%; against Salmonella Typhimurium [5], 0.75%. The MIC was 0.75% against Salmonella Typhimurium [2], 0.312% against Salmonella Enteritidis [8], 0.375% against Clostridium perfringens [4] and 0.75% against Escherichia coli [6].
